Measurements taken from patent US20250368639A1, “SOLID FORMS OF A COMPOUND FOR TREATING OR PREVENTING HYPERURICEMIA OR GOUT” (ATOM THERAPEUTICS CO., LTD, priority 2022, published 2025).
Where two headings read alike, the source gives them in different places.

Tests used:
[1] = Dynamic vapor sorption/desorption (DVS); format: physicochemical
Description: Moisture sorption/desorption data were collected on a SMS DVS intrinsic Vapor Sorption Analyzer under a nitrogen purge. The DVS experiment generally includes a moisture sorption step and a moisture desorption step. […] In other words, the sample is considered to have reached an equilibrium between moisture sorption and desorption under the relative humidity when dm/dt≤0.01%. The sample was maintained at the temperature of 25° C. with relative humidity varied from 0% to 95%, and back to 0% at an increment of 5% RH each step.

[2] = Solid state stability under stress conditions (XRPD, HPLC); format: physicochemical; details: closed vial about 60° C.; closed vial about 40° C./75% RH; 1 week and 2 weeks
Description: Form 1. Form 2, Form 6, Form 8, and Form 11 were each placed under following stress conditions: (1) in a closed vial at a temperature of about 60° C., and (2) in a closed vial at a temperature of about 40′° C. and a humidity of about 75% RH. The solids were analyzed with XRPD at 1 week and 2 weeks intervals.
Additionally, all forms were analyzed with HPLC for impurity at the 1 week and 2 weeks intervals. In a typical analysis, about 5 mg of forms were each dissolved in 10 ml of diluents with the aid of sonication for 2 minutes. THF was used as the diluent for Form 1, and methanol was used as the diluent for Form 6, Form 8, and Form 11. The HPLC analysis utilized Agilent Eclipse XDB-C18 4.6*150 mm. 3.5 μm at 30° C., a mobile phase of a gradient between 0.1% H3PO4 and acetonitrile (9:1 to 2:8 to 9:1), an injection volume of 10 μl, a flow rate of 1.0 ml/min, and a detection wavelength of 214 nm.
Form 2 was further subject to the stability test in an open vial at 40° C. and a relative humidity of 75% RH.

[3] = Single-dose pharmacokinetic study, oral and intravenous, in SD rats; format: in vivo, SD rat; details: for AUC(0-t) / Cmax / MRT last / AUC(0-inf) / clearance / half-life / Vd / Vd/F: male, SD, rat, plasma; for AUC(0-inf): read-out: AUCINF—pred; for clearance: read-out: Cl—pred (converted); for half-life: read-out: HL_Lambda_z (T1/2) (converted); for Vd: read-out: Vz—pred; for Vd/F: read-out: Vz—F—pred
Description: Form 1, Form 2, and Form 5D were each evaluated via a single-dose pharmacokinetic study following oral and intravenous administration in SD rats. […] Form 1, Form 2, and Form 5Dwere evaluated by rat pharmacokinetics study.
Male SD rat was purchased from Shanghai Sippr B&K Laboratory Animals Co., Ltd. The weight was 180 g˜200 g.
20% HP-β-CD was prepared from dissolving20 g of HP-β-CD (from Sigma) in 100 mL purified water. 0.5% CMC-Na was prepared from dissolving 1 g of CMC-Na (from Aladdin) in 200 mL purified water. The solutions were stored at 2-8 degree.
Group 1:4.95 mg (equivalent to 4.50 mg of anhydrous free base) of Form 1 was weighed out into a 20 ml bottle, and totally dissolved by 0.225 mL DMSO by sonication. After that, 4.275 mL of 20% HP-β-CD was added, mixed well by sonication. Finally, the pH value was adjusted to 7.0 by sodium hydroxide solution. The clear solution was obtained, and the concentration was 1 mg/mL.
Group 2:10.08 mg (equivalent to 9.164 mg of anhydrous free base) of Form 1 was weighed out into a 20 ml bottle, and then 9.164 mL of 0.5% CMC-Na was added. A white suspension was formed after sonicated by ultrasonic cell disruptor, and the concentration was 1 mg/mL.
Group 3:9.47 mg of Form 2 was weighed out into a 20 ml bottle, and then 9.470 mL of 0.5% CMC-Na was added. After sonicated, it was mixed well by homogenizer for 2 minutes. Finally, a white suspension was formed, and the concentration was 1 mg/mL.
Group 4:9.80 mg (equivalent to 8.909 mg of free base) of Form 5Dwas weighed out into a 20 mL bottle, and then 8.909 mL of 0.5% CMC-Na was added. After sonicated, it was mixed well by homogenizer for 2 minutes. Finally, a white suspension was formed, and the concentration was 1 mg/mL.
Group 5:1.94 mg (equivalent to 1.763 mg of anhydrous free base) of Form 1 was weighed out into a 20 ml bottle, and totally dissolved by 0.088 mL DMSO by sonication. After that, 1.675 mL of 20% HP-β-CD was added, mixed well by sonication. Finally, the pH value was adjusted to 7.0 by sodium hydroxide solution. The clear solution was obtained, and the concentration was 0.2 mg/mL.
The dose of intravenous administration was 1 mg/kg and 5 mg/kg, respectively. The oral dose was 10 mg/kg. Animals were fasted overnight before drug administration. After the drug administration, the rats were fed at the 4 hours.
About 150˜200 μL of blood was collected at the initial time (only intravenous), and at 0.25, 0.5, 1, 2, 4, 6, 8 and 24 h by jugular venipuncture blooding method. EDTA-K2 was selected as anticoagulant. Blood samples were centrifuged within one hour at 6000 rpm for 8 minutes (placed on wet ice before centrifugation). The supernatant was stored at −20° C. for LC-MS/MS analysis.
The computer program Microsoft Office Excel 2007 (Microsoft, USA) was used to process data and graphics. The pharmacokinetic parameters were calculated by WinNolin 6.4 software.

[4] = iv, 1 mg/kg, male SD rats, intravenous 1 mg/kg, Average
[5] = iv, 1 mg/kg, male SD rats, intravenous 1 mg/kg, individual rats 501/502/503 (c1/c2/c3)
[6] = iv, 5 mg/kg, male SD rats, 5 mg/kg (intravenous), Average
[7] = iv, 5 mg/kg, male SD rats, 5 mg/kg (intravenous), individual rats 101/102/103 (c1/c2/c3)
[8] = po, 10 mg/kg, male SD rats, oral 10 mg/kg, Average (Table 9)
[9] = po, 10 mg/kg, male SD rats, oral 10 mg/kg, individual rats 201/202/203 (c1/c2/c3)

## CCc1nc2ccccn2c1C(=O)c1cc(Br)c(O)c(C#N)c1 [Form 1, 3-bromo-5-[(2-ethylimidazo[1,2-a]pyridin-3-yl)carbonyl]-2-hydroxybenzonitrile]
[1]; 25° C., 80% RH
  DVS (80% RH): 5.32%
[1]; 25° C., 85% RH
  DVS (85% RH): 5.68%
[1]; relative humidity cycled from 0% RH to 5% RH
  Moisture absorbed (DVS): about 3.4 % by weight
[2]
  XRPD pattern after stress storage: substantially similar to those received at the initial time
[3]; SD rats, intravenous administration, 5 mg/kg versus 1 mg/kg
  Exposure at 5 mg/kg relative to 1 mg/kg: about 5 times
[3]; SD rats, oral administration 10 mg/kg, 10 mg/kg
  Exposure and bioavailability (words, comparison): sufficiently high bioavailability
[3]; male SD rats, oral 10 mg/kg, Average (Table 9)
  Cl—F—pred: 0.13 L/h/kg
[3]; male SD rats, oral 10 mg/kg, calculated by intravenous administration of 1 mg/kg, Average (Table 9)
  F: 43.54%
[3]; [4]
  AUC(0-t): 17.4 µg·h/mL
  Cmax: 9.58 µg/mL
  MRT last: 3.65 h
  AUC(0-inf): 17.4 µg·h/mL
  clearance: 0.06 L/h/kg
  half-life: 2.9 h
  Vd: 0.24 L/kg
[3]; [5]
  AUC(0-t): 18.5 µg·h/mL
  Cmax: 7.12 µg/mL
  MRT last: 3.99 h
  AUC(0-inf): 18.5 µg·h/mL
  clearance: 0.05 L/h/kg
  half-life: 3.2 h
  Vd: 0.25 L/kg
[3]; [6]
  AUC(0-t): 80.2 µg·h/mL
  Cmax: 51.4 µg/mL
  MRT last: 3.44 h
  AUC(0-inf): 80.5 µg·h/mL
  clearance: 0.06 L/h/kg
  half-life: 3.08 h
  Vd: 0.28 L/kg
[3]; [7]
  AUC(0-t): 90.8 µg·h/mL
  Cmax: 55.7 µg/mL
  MRT last: 3.65 h
  AUC(0-inf): 91.1 µg·h/mL
  clearance: 0.05 L/h/kg
  half-life: 3.12 h
  Vd: 0.25 L/kg
[3]; [8]
  AUC(0-t): 75.6 µg·h/mL
  Cmax: 6.48 µg/mL
  MRT last: 6.51 h
  AUC(0-inf): 76.2 µg·h/mL
  half-life: 3.16 h
  Vd/F: 0.61 L/kg
[3]; [9]
  AUC(0-t): 71.5 µg·h/mL
  Cmax: 6.03 µg/mL
  MRT last: 6.64 h
  AUC(0-inf): 72.1 µg·h/mL
  half-life: 3.15 h
  Vd/F: 0.63 L/kg
